Measurements reported in patent US10307383B2, “Cosmetic composition for preventing or ameliorating hypersensitive skin comprising cedrol or derivatives thereof, or pharmaceutically acceptable salts thereof” (University of Seoul Industry Cooperation Foundation, priority 2017, dated 2019).
Converted amounts (≈) assume the structure as drawn.

Tests used:
[1] = test system: psoriasis induced mice (imiquimod); test: Keratosis reduction effect in the psoriasis induced mice (PASI); assay type: in vivo, Balb/c mouse; conditions: for keratosis mean point (PASI): day 7, 100 mg/kg oral once a day, IMQ applied, IMQ alone 3.8
Description: (§1) To investigate the delayed effect of cedrol, cedryl acetate, and alpha-cedrene on the development of psoriasis, total 5 groups of mice were prepared (8 mice/group). First, the hair of the entire back of the 8-week-old male Balb/c mouse whose immune system was weakened was removed by using a hair clipper (Kimlaube Hair pen 325,327, Rikei, Korea). In the middle of the shaved back of the mouse, 2 mg of imiquimod (3M Health Care Limited, England) was applied in the area of 2 cm×1.5 cm and also 1,125 mg of imiquimod was applied on the right ear of the mouse every day once a day to induce psoriasis.
(§2) The mice prepared above were divided into the distilled water treated group (IMQ), the cedrol treated group (C), the cedryl acetate treated group (CA), and the alpha-cedrene treated group (CE). At this time, the mice were orally treated with distilled water at the concentration of 200 μl/mouse and cedrol or its derivatives at the concentration of 200 μl/mouse (100 mg/kg). The day when distilled water or the compound administration started was recorded as day 0 and the administration was performed once a day for a week, during which photo-recording was performed every day (FIGS. 2A˜2D). In the meantime, instead of applying imiquimod, 40 mg of vaseline was applied on the back of the control group (CONT) and 22.5 mg of vaseline was applied on the right ear of the control group. And the control group was orally administered with distilled water (200 μl/mouse).
Then, the psoriasis area severity index (PASI) was calculated to confirm the reduction effect of the compounds on keratosis. Keratosis is a symptom of psoriasis. The application of IMQ can induce keratosis.

[2] = test system: psoriasis induced mice (imiquimod); test: Skin flair reduction effect in the psoriasis induced mice (PASI); assay type: in vivo, Balb/c mouse; conditions: for skin flair mean point (PASI): day 7, 100 mg/kg oral once a day, IMQ applied, IMQ alone 4.00
Description: as §1, §2
Then, the psoriasis area severity index (PASI) was calculated to confirm the reduction effect of the compounds on skin flair. Skin flair is a symptom of psoriasis. The application of IMQ can induce skin flair.

[3] = test system: psoriasis induced mice (imiquimod); test: Skin wrinkle reduction effect in the psoriasis induced mice; assay type: in vivo, Balb/c mouse; conditions: for number of mice showing skin wrinkles: IMQ applied, 8 mice/group
Description: as §1, §2
The psoriasis induced mice orally administered with cedrol, cedryl acetate, and alpha-cedrene of Example <2-1> were observed by the naked eye, and the number of mice showing skin wrinkles was counted. Skin wrinkle is a symptom of psoriasis, and when IMQ is applied, skin keratinization increases and accordingly skin wrinkles are formed as time goes by.

[4] = test system: psoriasis induced mice (imiquimod); test: Skin thickness of the psoriasis induced mice (hematoxylin and eosin staining); assay type: in vivo, Balb/c mouse; conditions: day 7, 100 mg/kg oral; for skin thickness: IMQ applied, control 1,045, IMQ alone 1,181; for skin thickness, % inhibition: versus IMQ alone
Description: as §1, §2
The skin of the psoriasis induced mice orally administered with cedrol, cedryl acetate, and alpha-cedrene of Example <2-1> was stained with hematoxyline and eosine in order to compare the skin thickness.
Particularly, the psoriasis induced mice of Example <2-1> were sacrificed with CO2, from which 1 cm×1 cm portions of the back surface were obtained and placed in PBS. The tissues washed with PBS were loaded in 10% formalin, followed by fixing at room temperature for a day. The fixed tissues were washed with PBS once, followed by dehydration with 25% methanol, 50% methanol, 75% methanol, and 100% methanol for 30 minutes each. Further dehydration of those tissues was additionally performed with 100% ethanol twice for 30 minutes each; with the mixed solution comprising ethanol and xylene (1:1) for 30 minutes, and with 100% xylene twice for 30 minutes each. 4 hours before washing, the modular tissue embedding center (LEICA EG 1150H, Leica, Germany) was turned on and paraplast plus (Sigma Aldrich, Korea) was melted at 60° C., followed by washing the paraffin. The tissues were loaded in a bottle, to which the melted paraffin was poured in, followed by washing in a 60° C. warm chamber twice for one hour each. The xylene-free tissues were placed in the paraffin solution, followed by reaction in the warm chamber for a day. The tissue sections were then placed on a Peel-A-Way embedding mold (Polysciences, Taiwan) and the paraffin solution was filled to half of the mold. The tissue sections were placed on top of the Peel-A-Way embedding mold, followed by fixing. An embedding ring (Thomas Scientific, USA) was placed on the mold, which was treated with the paraffin solution to solidify the mold and the ring at 4° C. for 3 hours, followed by reaction at 4° C. for a day. The embedded tissues can be semipermanently stored at 4° C. The embedded tissues were cut by using a semi-motorized rotary microtome (LEICA RM2145 Microtome, Leica, Germany), which were suspended in a 37° C. water bath to spread the paraffin wrinkles. The straightened wrinkles were collected by using a micro silane coating slide (Muto Pure Chemicals, Japan), which were dried at 37° C. for a day. When the tissues were completely dried, they were treated with xylene twice for 5 minutes each in order to eliminate the paraffin remaining in the tissues. The tissues were further washed with the mixed solution comprising ethanol and xylene (1:1), 100% ethanol, 100% methanol, 75% methanol, and 50% methanol for 2 minutes each to stain the tissues easily. […]

[5] = test system: psoriasis induced mice (imiquimod); test: Recovery effect on hemorrhage spots of the psoriasis induced mice; assay type: in vivo, Balb/c mouse
Description: Imiquimod was applied to the psoriasis induced mice which had developed psoriasis for a week in Example <2-1>. The application was stopped 8 days after the application began. The groups CON and IMQ were treated with distilled water, the group C was treated with cedrol, the group CA was treated with cedryl acetate, the group CE was treated with alpha-cedrene alone at the concentration of 100 mg/kg in 200 μl, every day via oral-administration. Day 8 was the day the imiquimod application was stopped, since then the compounds were administered for 1 week once a day, during which photo-recording was performed (FIGS. 13A˜13D).
The psoriasis induced mice orally administered with cedrol, cedryl acetate, and alpha-cedrene of Example <3-1> were observed by the naked eye, and the number of mice showing the recovery of hemorrhage spots was counted.

[6] = test system: IL-17A expression; test: IL-17A inhibition assay in IL-17 luciferase-(LUCPorter) stable reporter cell line; conditions: for Inhibition of IL-17A expression (%) Experiment-1 / Inhibition of IL-17A expression (%) Experiment-2 / Inhibition of IL-17A expression (%) Experiment-3: 6 hours; for expression of IL-17A (luciferase units): control group 2,582 units; for suppression of the expression of IL-17A (in words): 10, 100, or 1,000 μg/ml; for inhibition at 10 µg/mL / inhibition at 100 µg/mL / inhibition at 1000 µg/mL / IC50: Homo sapiens; for inhibition at 10 µg/mL / inhibition at 100 µg/mL / inhibition at 1000 µg/mL: read-out: Average Inhibition (%); for IC50: read-out: IC50 to inhibit the IL-17A expression by 50%
[7] = day 7, 100 mg/kg oral, IMQ alone 3
[8] = day 8, 100 mg/kg oral, 8 mice/group
[9] = day 16, 100 mg/kg oral after termination of imiquimod

| Compound | keratosis mean point (PASI) [1] [point] | skin flair mean point (PASI) [2] [point] | number of mice showing skin wrinkles [3, 7] | skin thickness [4] [μm] | skin thickness, % inhibition [4] [% inhibition] | number of mice showing hemorrhage spots [5, 8] [mice] | expression of IL-17A, % by the control ([6]; 10 μg/ml) [% by the control] | Inhibition of IL-17A expression (%) Experiment-2 ([6]; 10 μg/ml) [%] | Inhibition of IL-17A expression (%) Experiment-3 ([6]; 10 μg/ml) [%] | expression of IL-17A (luciferase units) ([6]; 10 μg/ml) | expression of IL-17A, % by the control ([6]; 100 μg/ml) [% by the control] | Inhibition of IL-17A expression (%) Experiment-2 ([6]; 100 μg/ml) [%] | Inhibition of IL-17A expression (%) Experiment-3 ([6]; 100 μg/ml) [%] | expression of IL-17A (luciferase units) ([6]; 100 μg/ml) | expression of IL-17A, % by the control ([6]; 1,000 μg/ml) [% by the control] | Inhibition of IL-17A expression (%) Experiment-2 ([6]; 1000 μg/ml) [%] | Inhibition of IL-17A expression (%) Experiment-3 ([6]; 1000 μg/ml) [%] | expression of IL-17A (luciferase units) ([6]; 1,000 μg/ml) | suppression of the expression of IL-17A (in words) [6] | inhibition at 10 µg/mL [6] [%] | further results |
| --- | --- | --- | --- | --- | --- | --- | --- | --- | --- | --- | --- | --- | --- | --- | --- | --- | --- | --- | --- | --- | --- |
| CC1=CC[C@@]23C[C@@H]1C(C)(C)[C@@H]2CC[C@H]3C [alpha-cedrene, Alpha-cedrene] | 2.66 | 3.33 | one | 954 | 19.2 | 4 | 79 | 3 | 21 | 2,042±114 units | 68 | 11 | 32 | 1,757±310 units | 65 | 23 | 35 | 1,688±64 units | dose-dependently | 10 | keratosis reduction effect, comparison in words ([1]; 100 mg/kg oral, 7 days): strongest reduction effect; skin flair reduction effect, comparison in words ([2]; 100 mg/kg oral, 7 days): strongest reduction effect; skin wrinkle reduction effect, comparison in words ([3]; 100 mg/kg oral, 7 days): strongest reduction effect; number of mice showing skin wrinkles ([3]; day 6, 100 mg/kg oral): one; number of mice showing hemorrhage spots [5, 9]: no mouse; Inhibition of IL-17A expression (%) Experiment-1 ([6]; 10 μg/ml): 6%; Inhibition of IL-17A expression (%) Experiment-1 ([6]; 100 μg/ml): 21%; Inhibition of IL-17A expression (%) Experiment-1 ([6]; 1000 μg/ml): 36%; inhibition at 100 µg/mL [6]: 21.3%; inhibition at 1000 µg/mL [6]: 31.3%; IC50 [6]: 1510 µg/mL (≈ 7.37 mM) |
| CC(=O)O[C@]1(C)CC[C@@]23C[C@@H]1C(C)(C)[C@@H]2CC[C@H]3C [cedryl acetate, Cedryl acetate] | 3.08 | 3.16 | one | 999 | 15.3 | 6 | 77 | 15 | 23 | 1,994±304 units | 64 | 27 | 36 | 1,648±138 units | 10 | 74 | 90 | 257±6 units | dose-dependently | 19 | number of mice showing skin wrinkles ([3]; day 5, 100 mg/kg oral): one; number of mice showing hemorrhage spots [5, 9]: no mouse; inhibition at 100 µg/mL [6]: 31.5%; inhibition at 1000 µg/mL [6]: 82%; IC50 [6]: 608 µg/mL; IL-17A expression inhibition activity, comparison in words ([6]; order by IC50 of Table 3): strongest IL-17A expression inhibition activity |
| C[C@@H]1CC[C@H]2C(C)(C)[C@H]3C[C@@]12CC[C@@]3(C)O [cedrol, Cedrol] | 3.00 | 3.33 | 2 mice | 954 | 19.2 | 6 | 67 | 0 | 33 | 1,718±174 units | 57 | 14 | 43 | 1,460±124 units | 28 | 59 | 72 | 715±45 units | dose-dependently | 19 | number of mice showing skin wrinkles ([3]; day 5, 100 mg/kg oral): one; hemorrhage spot recovery effect, comparison in words ([5]; 100 mg/kg oral after termination of imiquimod): strongest recovery effect; number of mice showing hemorrhage spots ([5]; day 12, 100 mg/kg oral after termination of imiquimod): no mouse; Inhibition of IL-17A expression (%) Experiment-1 ([6]; 10 μg/ml): 24%; Inhibition of IL-17A expression (%) Experiment-1 ([6]; 100 μg/ml): 21%; Inhibition of IL-17A expression (%) Experiment-1 ([6]; 1000 μg/ml): 76%; inhibition at 100 µg/mL [6]: 26%; inhibition at 1000 µg/mL [6]: 69%; IC50 [6]: 726 µg/mL (≈ 3.26 mM) |
